Columns and labels:
[1] = test system: ovariectomized Sprague Dawley rats; experiment: BMD by DEXA in ovariectomized (Ovx) rats, bone loss model; format: in vivo; conditions: 90 days, compared with Ovx + vehicle; for BMD tibia head: 5 mg/kg body weight oral daily
Procedure: Bone mineral density of femur (global, head, neck), tibia (global, head, tibio-fibular separation point) and lumber vertebra (LV1, LV2, LV3, LV4) was determined by DEXA.
(§1) K058 at 1 to 10 mg/kg body weight were given daily by oral route to Sprague Dawley (180-200 g) rats after bilateral ovariectomy (Ovx). This is the most widely used animal model for osteopenia (bone loss) mimicking human condition of post-menopausal bone loss. The extract was given in gum acacia (vehicle). Sham operated rats and Ovx rats were used as controls and given only gum acacia. Each group consisted of 10 rats and the groups were as follows: sham intact, Ovx, Ovx+1 mg/kg K058 and Ovx+5 mg/kg K058. Treatment started 24 h after the surgery and continued for 90 days. After 90 days, the rats were first acclimatized and then kept in metabolic cages with no food but only water for 24 h to collect urine samples. After 24 h, rats were returned to the cages with food and water ad libitum with oral administration of the extract as before foe an additional 24 hour. Rats were then euthanized and autopsied to collect blood, bones (tibia, femur, L1-L4 vertebrae) and uterus.
as §1, with “K012” for “K058”, “doses of 1- and 5” for “1 to 10”, “(Ovx).” for “(Ovx). This is the most widely used animal model for osteopenia (bone loss) mimicking human condition of post-menopausal bone loss.”, “K012.” for “K058.”, “for” for “foe”

calvarial osteoblasts [2] = experiment: BrdU cell proliferation assay; format: cell-based, neonatal Sprague-Dawley rats
Procedure: (§2) Neonatal rat calvarial cell cultures are prepared as described previously (Chattopadhyay et al., Endocrinology 145:3451-62, 2004) using slight modification. Briefly, for calvarial osteoblast cultures, frontal and parietal bones from neonatal Sprague-Dawley rats (1-3 day old) were digested in 0.1% collagenase/0.1% dispase in α-MEM to obtain 5 sequential digests. The second through fifth digests are combined and grown to confluence at 37° C. and 5% CO2 in air in α-MEM, supplemented with 10% fetal bovine serum (FBS), 2 mM glutamine, 100 U/ml penicillin-streptomycin, non-essential amino acid solution and sodium pyruvate.
BrdU assay is used to measure cell proliferation based on the incorporation of BrdU during DNA synthesis in proliferating cells (Chattopadhyay et al., Endocrinology 145:3451-62, 2004). […] Cells were allowed to attach for 24 h and after that cells were starved in 0.5% FCS containing α-MEM medium followed by treatment of K058 at various concentrations for 24 hrs following which cell proliferation was determined by BrdU ELISA method as described by the manufacturer (Roche Biochemicals, Rotkreuz, Switzerland). […] BrdU incubation was carried out for 4 h, cells were fixed and denatured and subsequently treated with anti-BrdU antibody and the immune complexes were detected by the substrate reaction. Absorbance was measured at 370 nm.

Ishikawa cells = experiment: In vitro estrogenicity / anti-estrogenicity (ALP induction); format: cell-based, human; conditions: 72 h; for inhibition of increase in ALP activity stimulated by 17β-estradiol (anti-estrogenicity): 10^−11 to 10^−6 M with 10^−8 M 17β-estradiol; for ALP levels (estrogenicity): 10^−11 to 10^−6 M
Procedure: The expression of alkaline phosphatase is induced in Ishikawa cells in response to estrogen or estrogen like substances (Littlefield et al, Endocrinology. 1990 December; 127(6):2757-62.). Ishikawa cells were plated in 96-well flat bottomed microtiter plates at a density of 5000 cells/well and cultured in phenol red free DMEM containing 10% charcoal treated FCS. After 24 h of plating, cells were serum-starved for 12 h. Thereafter, for testing estrogenicity of compounds, the cells were treated with different concentrations (10^−6 to 10^−11 M) of pure compounds K058 and K012. Same concentrations of Raloxifene were also used for comparison. Estrogen concentration of 10^−8 M was used as a positive control. Compound treatments were performed for 72 h at 37° C. in CO2 incubator. Experiments were repeated 4 times. For the anti-estrogenicity studies, the compounds K012 and K058 at 10^−6 to 10^−11 M were added with 10^−8 M estrogen. After 72 h of incubation, the media was removed and the plates were washed twice with PBS and dried by tapping, gently. Freeze fracture of cells was achieved by placing the plates at −70° C. for 15, min followed by bringing to room temperature. The plates were then placed on ice and 50 μl of ice cold diethanolamine solution (5 mM P-nitrophenyl phosphate (PNP) and 0.25 mM MgCl2 in 1 M diethanolamine) was added to each well. The plates were then placed at 37° C. for 30 minutes for color (yellow) development is a function of ALP activity. Absorbance was measured at 405 nm.

calvarial osteoblasts [3] = experiment: In vitro mineralization of calvarial osteoblasts (alizarin red-S, von kossa); format: cell-based, neonatal Sprague-Dawley rats; conditions: for Von kossa staining (mineralized nodules) compared with controls (vehicle): 21 days culture
Procedure: as §2
Ability of cells to produce mineralized matrix is important with regard to development of materials for bone regeneration. Mineralization of extracellular matrix by osteoblasts was determined using alizarin red-S (AR-S) assay combined with cetylpyridinium chloride (CPC) extraction. (Stanford et al, J. Biol. Chem. 270:9420-9428; 1995.) Alizarin red is a dye that binds selectively to nascent calcium salts and is widely used for calcium mineral histochemistry. Cells were seeded onto a six well plate containing 10000 cells/well in culture medium supplemented with 10 mM β-glycerophosphate and 50 μg/ml ascorbic acid with test compounds K012, K058, K068 and K0100 at 1 nM and 100 nM concentration. Treatment was given for 21 days and after completion of the treatment samples were rinsed with PBS followed by fixation (4% HCHO for 20 min). Photomicrographs of the stained wells were taken. Subsequently, alizarin red-S stain was extracted using 10% (w/v) cetylpyridinium chloride (CPC) in […] sodium phosphate, pH 7.0, for 15 min at room temperature, and the resulting solutions were read on a Microplate reader with a test wavelength of 540 nm against a reference wavelength of 620 nm. Mineralization nodules were also seen by Von kossa staining procedure (A. M. Chou et al. Materials Science and Engineering C 20 (2002) 77-83.) After 21 days culture, cells in tissue culture wells were washed with PBS and immersed in 5% (w/v) silver nitrate solution for 45 min. After rinsing with distilled water, they were fixed in 5% (w/v) sodium bicarbonate formalin for 8 min. Finally, they were immersed in 5% (w/v) sodium thiosulphate solution for 5 min and washed thoroughly with water for 15 min and photomicrographs were taken.

[4] = 5.0 mg/kg body weight oral daily

O=c1c(O)c(-c2ccc(O)c(O)c2)oc2cc(O)c(C3O[C@H](CO)[C@@H](O)[C@H](O)[C@H]3O)c(O)c12 (stereo partly shown) [K012, 6-Glucopyranosyl-3,3′,4′,5,7-pentahydroxyflavone]
BMD tibio-fibular separation point (TFSP) ([1]; 1.0 mg/kg body weight oral daily): increase
BMD tibia head [1]: significantly higher
BMD lumber vertebra global [1, 4]: higher
BMD second lumber vertebra [1, 4]: higher
BMD femur neck ([1]; 5.0 mg/kg oral daily): significantly higher
BMD tibia global ([1]; 5.0 mg/kg oral daily): significantly higher
BMD tibio-fibular separation point (TFSP) ([1]; 5.0 mg/kg oral daily): significantly higher
osteoblast proliferation (summary of in vitro effects) (calvarial osteoblasts [2]): promoted
inhibition of increase in ALP activity stimulated by 17β-estradiol (anti-estrogenicity) (Ishikawa cells): did not inhibit
ALP levels (estrogenicity) (Ishikawa cells): no increase
osteoblast mineralization (summary of in vitro effects) (calvarial osteoblasts [3]): promoted
Von kossa staining (mineralized nodules) compared with controls (vehicle) (calvarial osteoblasts [3]): increased

O=C1c2c(cc(O)c([C@@H]3OC(CO)[C@@H](O)[C@H](O)C3O)c2O)O[C@@H](c2ccc(O)c(O)c2)[C@@H]1O (stereo partly drawn) [K058, (2S,3S)-(+)-3′,4′,5,7-tetrahydroxydihydroflavonol-6-C-β-D-glucopyranoside]
BMD tibia head [1]: increased
BMD L4 vertebra ([1]; 1.0&5.0 mg/kg body weight oral daily): higher
BMD femur global ([1]; 1.0-5.0 mg/kg oral daily): significantly higher
BMD femur neck ([1]; 1.0-5.0 mg/kg oral daily): significantly higher
BMD femur shaft ([1]; 1.0-5.0 mg/kg oral daily): significantly higher
osteoblast proliferation (summary of in vitro effects) (calvarial osteoblasts [2]): promoted
inhibition of increase in ALP activity stimulated by 17β-estradiol (anti-estrogenicity) (Ishikawa cells): did not inhibit
ALP levels (estrogenicity) (Ishikawa cells): no increase
osteoblast mineralization (summary of in vitro effects) (calvarial osteoblasts [3]): promoted
Von kossa staining (mineralized nodules) compared with controls (vehicle) (calvarial osteoblasts [3]): increased
